Measurements: patent publication US7199219B1, “Polypeptides derived from vitamin D nuclear receptor, and their uses in particular for screening vitamin D analogues” (Centre National de la Recherche Scientifique, priority 1999, dated 2007)

What was measured:
VDR = target: T1, VDR (Bos taurus, UniProt Q28037); settings: versus 1,25(OH)2 D3; cited from earlier work
T1 sequence (Q28037 1-426): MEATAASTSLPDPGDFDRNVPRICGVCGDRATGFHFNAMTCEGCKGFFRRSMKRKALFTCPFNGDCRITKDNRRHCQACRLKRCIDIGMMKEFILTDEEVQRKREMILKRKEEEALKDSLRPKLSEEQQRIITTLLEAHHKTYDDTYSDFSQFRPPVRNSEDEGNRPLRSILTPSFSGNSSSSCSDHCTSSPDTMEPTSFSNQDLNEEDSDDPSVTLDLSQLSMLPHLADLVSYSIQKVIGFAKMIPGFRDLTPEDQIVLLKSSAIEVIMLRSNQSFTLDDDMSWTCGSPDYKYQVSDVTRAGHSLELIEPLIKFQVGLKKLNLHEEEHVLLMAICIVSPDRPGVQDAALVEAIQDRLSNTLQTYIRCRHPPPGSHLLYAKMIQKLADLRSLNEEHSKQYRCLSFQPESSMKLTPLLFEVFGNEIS

[1] = test system: 17 m5-TATA-CAT reporter gene responding to GAL4; test: GAL4-LBD chimera transactivation, CAT reporter in transfected Cos cells; type: cell-based; settings: Gal4 (1–147) fusion, Cos cells, 1,25(OH)2 D3 10^−7M
From the text: b) CAT activities of the wild-type hVDR and of the mutant hVDR; these activities are indicated on the ordinate as a percentage; column 1 corresponds to the CAT activity measured in the absence of vitamin D (VD), of wild-type (wild-type) hVDR and of mutant (truncated) hVDR; column 2 corresponds to CAT activity measured in the presence of VD and in the absence of wild-type hVDR and of mutant hVDR; column 3 corresponds to CAT activity measured in the presence of wild-type hVDR and in the absence of VD and of mutant hVDR; column 4 corresponds to CAT activity measured in the presence of VD and of wild-type hVDR and in the absence of mutant hVDR; column 5 corresponds to CAT activity measured in the presence of mutant hVDR, and in the absence of VD and of wild-type hVDR; column 6 corresponds to CAT activity measured in the presence of mutant hVDR and of VD and in the absence of wild-type hVDR.
No significant change was observed between the dissociation constants of the wild-type and mutant VDRs was observed, the values being similar to that described previously for the whole receptor (Bouillon et al., 1995). […] The chimeric proteins were expressed by transfection into Cos cells, and the transactivation was measured with an appropriate reporter responding to GAL4.

Molecule	binding affinity relative to the natural ligand (VDR) [times]	transactivation properties (CAT activity) compared with wild-type LBD [1]
C=C1C(=CC=C2CCCC3(C)C2CCC3C(C)CCCC(C)(C)O)CC(O)C(C)C1O (stereo not drawn) [2 α-methyl 1,25(OH)2 D3]	4	–
mutant VDR: polypeptide derived from human VDR in which residues 1–117 and 165–215 are suppressed (protein, Description of the artificial sequence polypeptide derived from the nuclear receptor of the human vitamin D, polypeptide derived from human VDR in which residues 1–117 and 165–215 are suppressed) DSLRPKLSEEQQRIIAILLDAHHKTYDPTYSDFCQFRPPVRVNDGGGSVTLELSQLSMLPHLADLVSYSIQKVIGFAKMIPGFRDLTSEDQIVLLKSSAIEVIMLRSNESFTMDDMSWTCGNQDYKYRVSDVTKAGHSLELIEPLIKFQVGLKKLNLHEEEHVLLMAICIVSPDRPGVQDAALIEAIQDRLSNTLQTYIRCRHPPPGSHLLYAKMIQKLADLRSLNEEHSKQYRCLSFQPECSMKLTPLVLEVFGNEIS	–	comparable transactivation properties
